Each structure is given as a SMILES string. Some results are limits rather than exact numbers.

Our source for the melting point values is a melting point compilation (Tetko et al.; mined from patent text by program, amines drawn as free bases though some values may be those of a salt).

Turning to `O=C(O)c1ccc(C(=C2CC3CCC(C2)N3CCc2ccccc2)c2ccccc2)cc1`, the melting point – broadly, the temperature, or range, at which the solid turns liquid – was 285 to 290 °C.
`O=C1c2cc(Oc3ccc(Cl)cc3)ccc2CCN1Cc1cccnc1`: the melting point lay within 93.5 to 94.5 °C.
Take `NC(=O)c1c(Cl)c(-c2ccccc2)n2c1CN(C(=O)c1ccc(-c3ccccn3)s1)CC2`: the melting point is 232 °C.
Under `Cc1c2cccccc-2c(-c2ccccc2)c1-c1ccc(S(C)(=O)=O)cc1` stands 165 to 167 °C; under `Nc1cc(C(=O)O)cc(N)c1O`, 205 °C.
For `COC(=O)C1Cc2c([nH]c3ccccc23)CN1C(=O)c1ccc(Cl)cc1` (stereo unspecified) the value was 243 to 244 °C.
Take `COc1cc(-c2nc3ccc(OCCN4CCCCC4)cc3n2Cc2ccccc2Br)cc(OC)c1OC`: the melting point was found to be 145 °C.
The molecule `O=C(c1cc(=O)c2cc(O)ccc2[nH]1)N1CCC(OCc2ccccc2)CC1` returned a melting point of 103 °C.
Under `COc1ccc(-c2[nH]nc3c2C(=O)c2c(NC(=O)C4CC4)cccc2-3)cc1` stands 289 °C; under `C=CCOc1ccc(CCNC(=O)NC)cc1OC`, 81 to 83 °C; under `CNC(=O)Nc1ccc(Oc2ccc3c(c2)CCC(C)(OC)O3)cc1` (stereo unspecified), 140 °C.
`O=C(NC1CCCCC1)NC1CCCc2sccc21` (stereo unspecified) had a melting point of 222 to 225 °C.
Turning to `COC(=O)c1cc(I)c(OC)c2c1OCO2`, the melting point was in the range of 162 to 164 °C.
Take `C=C(CCCCCCCCCCCCCCCCCC)C(=O)OC`: the melting point is 48 to 50 °C.
Under `CC(C)(CC(=O)O)SC(CCCc1ccccc1)c1ccc(OCc2ccc3ccccc3n2)cc1` (stereo unspecified) stands 90 to 92 °C.
Under `O=C(O)c1ccccc1Nc1ccc(CCc2ccc(N3CC[C@@H]4CCCC[C@H]4C3)cc2)cc1` stands 203 to 206 °C; under `CCCc1c(OCCCSc2nc3ccc(C(=O)O)cc3[nH]2)ccc(C(C)=O)c1O`, 106 to 108 °C.
For `COc1nc(S(C)(=O)=O)cnc1NS(=O)(=O)c1cccc(Cl)c1Cl` the value was 237 to 238 °C; for `CC(=O)CCN1C(=O)c2ccccc2S1(=O)=O`, 118 to 119 °C; for `CC(C)c1cc2ncccc2cc1Oc1cnc(N)nc1N`, 207 to 208 °C.
The molecule `O=C1COCCCOC(=O)COCCCO1` gave a melting point of 135 to 136 °C.
For the molecule `Fc1cc(CC2(Cc3ccncc3)c3cccnc3-c3ncccc32)ccn1`, the melting point was in the range of 228 to 230 °C.
For `Oc1cccc2c(Cl)ccnc12` the value was 143 to 145 °C; for `CS(=O)(=O)Nc1cc(C(O)CNC2CCN(c3ccc(C=C4SC(=O)NC4=O)cc3Br)CC2)ccc1O` (stereo unspecified), more than 200 °C; for `O=C1C(c2ccc(O)cc2)=C(Br)c2cc(O)ccc21`, 245 °C.
For `COc1cccc(-c2cc3c(Nc4cccc(Cl)c4)ncnc3[nH]2)c1` the value was 262 to 263 °C.
`CCCc1nc2cnc3ccccc3c2n1CCCCNS(=O)(=O)c1ccccc1` had a melting point of 156 to 157 °C.
Under `CC(=O)NC[C@H]1CN(c2ccc(C3=CCN(C=O)CC3)cc2)C(=O)O1` stands 149 to 152 °C; under `CC(C)(C)OC(=O)N1Cc2ccccc2CN1`, 68 to 71 °C.
Turning to `CC1CC(N)=NN1c1nc2ccccc2s1` (stereo unspecified), the melting point was 212 to 215 °C.
For `COc1ccccc1Oc1c(NS(=O)(=O)c2ccc(C(C)(C)C)cc2)nc(OCCO)nc1OCCOc1ncc(Br)cn1` the value was 73.5 to 77 °C.
For `CN(c1ncnc2c1ncn2C1OC(CO)C(O)C1O)n1cccc1` (stereo unspecified) the value was 195 to 197 °C; for `COCCOc1cc2ncnc(Oc3ccc(Cl)cc3F)c2cc1OC`, 167 to 168 °C.
In turn, `COC(=O)C(C#N)C(=O)Nc1ccc(C(F)(F)F)cc1` (stereo unspecified) displayed a melting point of 186 to 189 °C.
`CCOC(=O)c1ccc(-c2ccc(OC)c(Br)c2)cc1`: the melting point lay within 114 to 115 °C.
Molecule `COc1ccccc1N1CCc2c(C)nc3c(OC)cccc3c21` gave a melting point of 168 to 169 °C.
Under `O=C(Nc1ccccc1)OCc1cn(-c2cc3cc(C(=O)O)c(=O)[nH]c3cc2C(F)(F)F)cn1` stands 178 to 180 °C.
In turn, `COc1cccc(OC)c1-c1ccc(C[C@H](NC(=S)c2c(Cl)cccc2Cl)C(=O)O)cc1` came in with a melting point of 180 °C.
Molecule `O=C(O)c1cc(O)c(Cl)c(Cl)c1` displayed a melting point of 211 °C.
The molecule `CS(=O)CCCn1cnc(-c2ccc(F)cc2)c1-c1ccncc1` (racemic) yielded a melting point of 122 to 123 °C.
The molecule `O=C(c1ccc2nonc2c1)N1CC=CC1` gave a melting point of 117 to 118 °C.
Take `CCCCCOC1=C(c2ccccc2)C(CCC(=O)O)OC1=O` (stereo unspecified): the melting point was in the range of 86 to 87 °C.
Under `CC(Cc1ccc(OCc2ccccc2)cc1)C(=O)O` (stereo unspecified) stands 93 to 95 °C.
For `COC1(c2cc(F)cc(Sc3ccc4c(c3)SCC(=O)N4C)c2)CCOCC1` the value was 131 to 133 °C; for `O=c1cnc2c(NC(CO)CO)nc(SCc3cccs3)nc2[nH]1`, 220 to 223 °C.
Turning to `COc1ccc(C#CC(C)N(O)C(N)=O)o1` (stereo unspecified), the melting point turned out to be 131 °C.
For `CCCc1[nH]c(C(=O)OCC)c(C)c1CCC` the value was 84 to 87 °C; for `COc1ccc(C(=O)c2cccc(F)c2)cc1C(=O)O`, 200 °C.
As to `COc1cccc2cc(C(=O)OCC(C)C)[nH]c12`, the melting point was in the range of 100 to 101 °C.
`CS(=O)(=O)c1c(Sc2ccccc2)cccc1C(=O)O`: the melting point lay in the range of 185 to 186 °C.
For `N#CC1CN1C(=O)c1ccc(S(N)(=O)=O)cc1` (stereo unspecified) the value was 145 to 146 °C; for `CCCSc1ncc(CC(N=C(c2ccccc2)c2ccccc2)C(=O)OCC)n1Cc1ccccc1Cl` (stereo unspecified), 178 to 181 °C.
Turning to `CNC(=O)Cc1c(-c2ccc(C)cc2)nc2n(C)c3ccccc3n12`, the melting point was 251 to 252 °C.
For `Cc1ccc2c(c1)C(=O)C(=O)N2CCCN(C(C)C)C(C)C`, the melting point is 87 to 89 °C.
Molecule `Cc1cc(C(F)(F)C(F)(F)C(F)(F)C(F)(F)F)ccc1NC(=O)c1cccc(Br)c1C(=O)NC(C)C` gave a melting point of 190 to 191 °C.
The molecule `Cc1cc(N)n(C(=NO)c2cccc([N+](=O)[O-])c2)n1` gave a melting point of 224 to 226 °C.
For `CCCCc1nc2cc(C(=O)O)cc(C(=O)O)c2n1Cc1ccccc1Cl` the value was 299 to 301 °C.
In turn, `C=C(C)C(=O)Nc1ccc(Nc2ccccc2)cc1` registered a melting point of 101 to 103 °C.
Regarding `CCC1CC(=O)N(Cc2cccc(NC(=O)C(F)(F)C(F)(F)F)c2)N=C1c1ccc(OC)c(OC2CCCC2)c1` (stereo unspecified), the melting point is 126 °C.
In turn, `CCCCCCCCCCC1CCCC1C(=O)Nc1cccc2ncccc12` (stereo unspecified) showed a melting point of 75 °C.
`CCOC(=O)C(Br)=CC1C(C(=O)OC(C#N)c2cccc(Oc3ccccc3)c2)C1(C)C` (stereo unspecified): the melting point stood at 69 °C.
`CCCCNC(=O)NS(=O)(=O)c1ccc(CCNC(=O)N2Cc3ccccc3C2=O)cc1` came in with a melting point of 188 to 190 °C.
On to `CC1(C)SC2C(NC(=O)Cc3ccccc3)C(=O)N2C1NC(=O)OCC(Cl)(Cl)Cl` (stereo unspecified), for which the melting point lay in the range of 223 to 224 °C.
Consider `Cc1ccn2c(C)c(-c3ccc4c(c3)N(C)C(=O)CS4)nc2c1`, for which the melting point is 231 °C.
Under `CSCC(=O)[C@H](Cc1ccccc1)NC(=O)[C@H](CC(C)C)NC(=O)CCc1ccccc1` stands 104 to 107 °C; under `COC(=O)N1Cc2ccccc2C(c2ccccc2Cl)c2ccccc21` (stereo unspecified), 159 to 161 °C; under `CCN(CC)c1ccc(C(=O)c2ccccc2C(=O)O)cc1`, 184 °C.
For `Cc1cc(C)c(/C=C/C=O)c(Br)c1` the value was 99 to 103 °C; for `CC(=O)Nc1ccc(OCc2nc3ccccc3s2)cc1C`, 179 to 182 °C.
For the molecule `COc1nc(-c2ccccc2)c2ccsc2n1`, the melting point fell in the range of 160 to 162 °C.
For `Cc1cccc(-c2nc(N)sc2-c2ccc3ncccc3n2)n1` the value was 188 °C; for `COCCOCCOc1ccc(NC(=O)NCc2ccc3c(c2)CN(C2CCC(=O)NC2=O)C3=O)cc1Cl` (stereo unspecified), 188 to 190 °C; for `CCOCc1nc2c(N)nc(C)c(C)c2n1CCC1CCN(C(=O)N2CCOCC2)CC1`, 158 to 160 °C.
For `Cc1cscc1NC(=S)Nc1cccc(C)c1N` the value was 184 to 186 °C; for `COc1ccc(S(=O)(=O)Nc2onc(C)c2Br)cc1OC`, 136 to 138 °C; for `Cc1ccc(N2C(=O)C(N)=C(C(=O)c3ccc(C(C)C)cc3)C2c2ccc(OC(F)(F)F)cc2)nn1` (stereo unspecified), 258 to 260 °C.
Molecule `CCc1ccc(C=O)nc1` registered a melting point of 138 to 140 °C.
On to `COc1ccccc1C1=Nc2ccc(N3CCOCC3)cc2C(=O)C1`, for which the melting point was 262 to 264 °C.
The molecule `O=C(COc1cc(-c2ccc(Cl)cc2)nc2ccccc12)N1CCSCC1` gave a melting point of 117 °C.
For `COc1ccc(-c2cc(C(Nn3cnnc3)c3ccccc3OS(N)(=O)=O)ccc2C#N)cc1` (stereo unspecified) the value was 184 to 186 °C; for `CSC(=NCc1cccnc1)NC#N`, 152 to 154 °C; for `CC(=O)NC(CC(=O)N[C@@H]1CN2C(=O)N(c3cc(Cl)nc(Cl)c3)C(=O)[C@@]2(Cc2ccc(OC(F)(F)F)cc2)C1)C(N)=O` (stereo partly specified), 153 °C.
For `COc1ccccc1C=CC=CC(=O)c1cc(OC)c(OC)c(OC)c1` the value was 111 °C.
`Sc1nc2cnc3ccccc3c2s1` returned a melting point of 282 to 284 °C.
`CN1CCN(c2ccc(C(=O)N[C@H]3CC[C@H](CCN4CCC(c5cccc6c5CCO6)CC4)CC3)cc2)CC1`: the melting point is 241 °C.
For `Nc1ccc(F)c(-c2cccnc2)c1F`, the melting point was in the range of 112 to 113 °C.
As to `CCCCn1nc2c(N)nc3c(c2c1CCS(=O)(=O)CCC)CCCC3`, the melting point was in the range of 173 to 175 °C.
Under `CC(C)OC(=S)SSCCSSC(=S)OC(C)C` stands 66 °C; under `O=C1c2cc(Cl)c(Cl)cc2C(O)N1CCO[N+](=O)[O-]` (stereo unspecified), 145 to 147 °C; under `Fc1ccc(-c2csc(-c3cn([C@H]4CN5CCC4CC5)nn3)c2)cn1`, 136 °C.
Under `O=c1ccc(-c2ccsc2)n[nH]1` stands 169 to 171 °C.
